Measurements from ChEMBL document CHEMBL3885861, “Open TG-GATES”.

Organism: Rattus norvegicus
Experiment: Open TG-GATES - Regimen: Daily Repeat
Format: toxicity, organism-based, Sprague-Dawley
Set-up: regimen Daily Repeat, gender Male, age 6 weeks
Conditions: in vivo, po, 1000 mg/kg, […], route gavage, dose level High; for KIDNEY_L / KIDNEY_R / KIDNEY_TOTAL: tissue Kidney; for LIVER: tissue Liver; for A/G / ALP / ALT / AST / BUN / CRE / Ca / Cl / DBIL / GLC / IP / K / LDH / Na / PL / RALB / TBIL / TC / TG / TP / gamma-GTP: tissue Plasma

## O=C(N[C@H](CO)[C@H](O)c1ccc([N+](=O)[O-])cc1)C(Cl)Cl [CHLORAMPHENICOL]
Tissue Blood, time 28 day
  Lym: 87.4%
  MCH: 19.6 pg
  MCHC: 34.1%
  MCV: 57.3 fL
  Mono: 1.6%
  Neu: 9.2%
  PT: 15.5 s
  Plat: 106.7 x10_4/uL
  RBC: 746.4 x10_4/ul
  Ret: 1.7%
  WBC: 78.6 x10_2/uL
Time 7 day
  KIDNEY_L: 1.2 g
  KIDNEY_R: 1.2 g
  KIDNEY_TOTAL: 2.4 g
  LIVER: 15.2 g
  A/G: 0.9
  ALP: 1416.6 IU/L
  ALT: 50.6 IU/L
  AST: 77.4 IU/L
  BUN: 15.8 mg/dL
  CRE: 0.2 mg/dL
  Ca: 11.2 mg/dL
  Cl: 105.4 meq/L
  DBIL: 0.012 mg/dL
  GLC: 179.4 mg/dL
  IP: 8.8 mg/dL
  K: 4.1 meq/L
  LDH: 92.8 IU/L
  Na: 143.6 meq/L
  PL: 136.2 mg/dL
  RALB: 2.7 g/dL
  TBIL: 0.052 mg/dL
  TC: 67.8 mg/dL
  TG: 71.8 mg/dL
  TP: 5.8 g/dL
  gamma-GTP: 1 IU/L
Time 14 day
  KIDNEY_L: 1.4 g
  KIDNEY_R: 1.3 g
  KIDNEY_TOTAL: 2.7 g
  LIVER: 18.1 g
  A/G: 0.9
  ALP: 1573.2 IU/L
  ALT: 50.6 IU/L
  AST: 72.6 IU/L
  BUN: 17.8 mg/dL
  CRE: 0.2 mg/dL
  Ca: 11 mg/dL
  Cl: 105.6 meq/L
  DBIL: 0.016 mg/dL
  GLC: 179.2 mg/dL
  IP: 7.2 mg/dL
  K: 4.1 meq/L
  LDH: 53.6 IU/L
  Na: 144 meq/L
  PL: 149.8 mg/dL
  RALB: 2.7 g/dL
  TBIL: 0.046 mg/dL
  TC: 71.4 mg/dL
  TG: 79.2 mg/dL
  TP: 5.7 g/dL
  gamma-GTP: 1 IU/L
Time 28 day
  KIDNEY_L: 1.6 g
  KIDNEY_R: 1.6 g
  KIDNEY_TOTAL: 3.2 g
  LIVER: 20.9 g
  A/G: 0.9
  ALP: 936.8 IU/L
  ALT: 43.6 IU/L
  AST: 72.8 IU/L
  BUN: 17 mg/dL
  CRE: 0.2 mg/dL
  Ca: 10.4 mg/dL
  Cl: 105.8 meq/L
  DBIL: 0.016 mg/dL
  GLC: 164.4 mg/dL
  IP: 6.3 mg/dL
  K: 3.6 meq/L
  LDH: 53.4 IU/L
  Na: 145.2 meq/L
  PL: 131.6 mg/dL
  RALB: 2.6 g/dL
  TBIL: 0.06 mg/dL
  TC: 57.8 mg/dL
  TG: 74.8 mg/dL
  TP: 5.6 g/dL
  gamma-GTP: 1 IU/L
